# Measured values published in article PMC10721329, “Quisinostat is a brain-penetrant radiosensitizer in glioblastoma” (JCI Insight, 2023).
# “And” between values parts separate entries of the source, which are not always exact repeats. Identical values can stand only once. Like-named read-outs stand apart in the source and are kept apart here.
# Tests used:
# [1] = Body weight / tolerability in non-tumor-bearing mice; format: in vivo, athymic nude mice; conditions: for weight of normal nude mice during QST treatment: QST 10 mg/kg, individual mice
# [2] = Total and unbound QST in plasma and normal brain of non-tumor-bearing mice (equilibrium dialysis, LC-MS/MS); format: in vivo, athymic nude mice
# Description: Insufficient drug exposure in the brain is a major hurdle in the treatment of brain tumors. […] On the last treatment day, blood and intact brains were harvested 2 hours after dosing with QST (Figure 6E). […] Each brain hemisphere was processed separately to perform matched PK and PD analyses from the same animal. […] For PD analyses, we homogenized entire hemispheres to obtain whole-tissue protein lysates from each mouse and assessed changes in histone H3 acetylation levels using immunoblotting.
# Our study therefore emphasizes the importance of implementing a PK-PD–guided approach when evaluating or developing new drugs for GBM. Although PK analyses are now commonly performed in preclinical trials for a variety of different brain tumors, these studies typically measure only the total brain-to-plasma concentration ratio as a measure of drug-brain penetration ([74]–[76]). […] Therefore, we employed an equilibrium dialysis method combined with LC-MS/MS analysis to measure the unbound brain-to-plasma concentration, which represents the pharmacologically active fraction of a drug. A crucial finding in our study was the species-specific differences in QST stability. […] A recent study reported that hydroxamic acids such as QST are common substrates of a family of esterases (carboxylesterases) that are abundantly present in rodent plasma but absent in human plasma ([34], [78]). We confirmed that the addition of BNPP, a specific inhibitor of carboxylesterases, stabilized QST in mouse plasma. Our results therefore highlight a large discrepancy in the metabolic stability between rodent and human species. This is an important consideration for translating preclinical studies to the clinic because such differences may hinder further clinical development of promising drug candidates. Our data will thereby serve as a valuable resource and note of caution for future preclinical studies employing QST or similar drugs with species-specific stability.
# QST concentrations in specimens were measured using reverse-phase LC on the AB SCIEX QTRAP6500+ LC-MS/MS system by operating electrospray in the positive ion mode. For liquid chromatographic separation, gradient elution was performed using a Phenomenex Kinetex F5 100 Å column (100 × 2.1 mm, 2.6 μm). The initial composition of the mobile phase was 70% phase A (0.1% formic acid in water) and 30% phase B (0.1% formic acid in 1:1 acetonitrile/methanol) with a 0.35 mL/min flow rate. Gradient elution was achieved as follows: mobile phase (B) was maintained at 30% from 0 to 0.3 minutes, increased to 95% from 0.3 to 0.8 minutes, maintained at 95% from 0.8 to 2.5 minutes, and decreased to 30% from 2.5 to 2.8 minutes. The total run time was 3.5 minutes. The internal standard used in this study was D8-infigratinib. The retention times for QST and D8-infigratinib were 1.6 and 1.8 minutes, respectively. Mass-to-charge ratio transitions were as follows: 395.20 → 144.00 (QST) and 568.08 → 321.00 (D8-infigratinib). LC-MS/MS analysis was performed using an Analyst 1.7 Chromatographic Data System. See Supplemental Methods for detailed PK experiments. […]
# vortex-mixed for 10 s and centrifuged at 12000 g at 4 °C for 10 min. A 100-µL aliquot of the supernatant was transferred to an autosampler vial, and 5 µL was injected into the LC-MS/MS system for analysis. Whenever necessary, appropriate dilutions were made to accommodate the analysis of small volume samples.
# Brain and Brain Tumor Sample Preparation
# Normal brain and brain tumor tissue homogenates were prepared by 1:4 (mass/volume) ratio with PBS. Samples were homogenized under 6.00 m/s speed for 40 seconds with 3 cycles by Bead Ruptor Elite homogenizer (Omni International). Plasma was used as a surrogate matrix for brain/tumor homogenate. Brain homogenate samples from in vivo studies were prepared as described for plasma samples. Analyte and IS were extracted by protein precipitation with methanol containing IS. After centrifugation at 12000 rpm for 10 minutes at 4 °C, 5 µL of […]
# [3] = normal mice, individual mice, n=6
compound,measurement,setting,value
"Cn1cc(CNCC2CCN(c3ncc(C(=O)NO)cn3)CC2)c2ccccc21 [QST, quisinostat]",tolerability (weight loss),"[1]; 10 mg/kg IP MWF for 2 weeks, non-tumor-bearing athymic nude mice",well tolerated
same,weight of normal nude mice during QST treatment,[1]; treatment day 1,28.1 g (2×) and 28.4 g and 26.7 g and 26.2 g and 20.2 g
same,weight of normal nude mice during QST treatment,[1]; treatment day 2,27.9 g and 27.4 g and 26 g and 26.7 g and 20.4 g and 27.5 g
same,weight of normal nude mice during QST treatment,[1]; treatment day 3,27.4 g and 27.9 g and 25.6 g and 27.2 g and 20.3 g and 27.8 g
same,weight of normal nude mice during QST treatment,[1]; treatment day 4,28.1 g and 27.7 g and 25.7 g and 27 g (2×) and 20.8 g
same,weight of normal nude mice during QST treatment,[1]; treatment day 5,27.5 g and 27.4 g and 26.5 g and 27.1 g (2×) and 20.3 g
same,weight of normal nude mice during QST treatment,[1]; treatment day 6,27.4 g and 27 g and 26.9 g and 27.2 g and 20.2 g and 27.1 g
same,"mean unbound QST level, fold lower in brain than in plasma","[2]; 10 mg/kg IP MWF 2 weeks, 2 hours after last dose",more than 70 fold
same,concentration at 2 h,"[2]; athymic nude, mouse, brain, intraperitoneal, 10 mg/kg, normal mouse brains, individual mice, n=6, read-out: Total QST, brain",45.3 nM
same,concentration at 2 h,"[2]; athymic nude, mouse, brain, intraperitoneal, 10 mg/kg, normal mouse brains, individual mice, n=6, read-out: Unbound QST, brain",1.65 nM
same,concentration at 2 h,"[2]; athymic nude, mouse, brain, ip, 10 mg/kg, normal brain, 10 mg/kg IP MWF 2 weeks, 2 hours after last dose, read-out: unbound drug concentration in the brain",~1.7 nM
same,"Total QST, plasma",[2]; [3],464.014 nM and 281.833 nM and 297.864 nM and 455.378 nM and 301.853 nM and 226.232 nM
same,"UNBOUND [QST], Plasma",[2]; [3],117.95 nM and 180.33 nM and 119.53 nM and 89.59 nM and 183.75 nM and 111.61 nM
same,concentration at 2 h,"[2]; normal mouse brains, individual mice, n=6, read-out: Total QST, brain",26.24 nM and 32.91 nM and 41.935 nM and 27.27 nM and 31.45 nM
same,concentration at 2 h,"[2]; normal mouse brains, individual mice, n=6, read-out: Unbound QST, brain",2.1 nM and 1.36 nM and 1.57 nM and 2.27 nM and 1.31 nM
